# According to ChEMBL document CHEMBL5727468, “Piperidine compounds as PCSK9 inhibitors” (2019):
# Biological target: Proprotein convertase subtilisin/kexin type 9 (Homo sapiens, UniProt Q8NBP7)
# Experiment: In Vitro Screening Experiment: 1. […] Data Analysis:Date was analyzed with Prismsoftware (nonlinear regression (Sigmoidal dose-response-variable slope)Inhibition ratio %=100*(Sample reading−LC reading)/(HC reading−LC reading).
# Proprotein convertase subtilisin/kexin type 9, sequence (Q8NBP7 31-152 limits assumed): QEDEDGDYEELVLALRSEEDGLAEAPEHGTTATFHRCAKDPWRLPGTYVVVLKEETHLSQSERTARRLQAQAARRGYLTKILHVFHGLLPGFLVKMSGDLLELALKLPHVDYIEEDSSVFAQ
# Proprotein convertase subtilisin/kexin type 9, sequence (Q8NBP7 153-692 limits assumed): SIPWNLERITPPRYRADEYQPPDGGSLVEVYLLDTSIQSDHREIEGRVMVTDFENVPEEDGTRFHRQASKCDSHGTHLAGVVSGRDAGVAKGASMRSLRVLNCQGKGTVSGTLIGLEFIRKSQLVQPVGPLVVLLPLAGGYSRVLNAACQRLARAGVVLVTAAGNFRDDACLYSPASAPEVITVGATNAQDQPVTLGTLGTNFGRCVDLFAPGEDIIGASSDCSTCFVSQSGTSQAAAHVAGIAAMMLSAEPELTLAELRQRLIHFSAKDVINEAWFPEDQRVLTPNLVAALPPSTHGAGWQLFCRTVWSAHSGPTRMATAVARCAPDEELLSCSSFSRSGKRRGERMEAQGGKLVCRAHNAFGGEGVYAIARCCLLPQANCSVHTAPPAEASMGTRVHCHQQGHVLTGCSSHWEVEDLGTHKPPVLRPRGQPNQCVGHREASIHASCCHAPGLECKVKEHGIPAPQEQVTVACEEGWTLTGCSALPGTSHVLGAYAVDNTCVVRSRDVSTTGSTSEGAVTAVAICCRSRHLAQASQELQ
row,Compound,IC50 [µM]
1,CC1(C)ON=C(c2ccc(C(=O)N(c3nccc4ccccc34)[C@@H]3CCCNC3)cc2)C1=O,< 10
2,CC1(C)ON=C(c2ccc(C(=O)N(c3ncccc3C3CC3)[C@@H]3CCCNC3)cc2)C1=O,< 10
3,Cc1cccnc1N(C(=O)c1ccc(C2=NOC(C)(C)C2=O)cn1)[C@@H]1CCCNC1,< 10
4,CCc1cccnc1N(C(=O)c1ccc(C2=NOC(C)(C)C2=O)cc1)[C@@H]1CCCNC1,< 10

# Continued, values first:
row,IC50 [µM],Compound
1,< 10,COCCOC1C(c2ccc(C(=O)N(c3ncccc3C)[C@@H]3CCCNC3)cc2)=NOC1(C)C (some centres not stated)
2,< 10,Cc1cccnc1N(C(=O)c1ccc(C2=NOC(C)(C)C2(C)O)cc1)[C@@H]1CCCNC1 (some centres not stated)
3,< 10,COC1C(c2ccc(C(=O)N(c3ncccc3Cl)[C@@H]3CCCNC3)cc2)=NOC1(C)C (some centres not stated)
